Experimental findings from patent publication US20110039873A1, “SUBSTITUTED PYRAZOLO[1,5-a] PYRIDINE COMPOUNDS HAVING MULTI-TARGET ACTIVITY” (priority 2009, published 2011) are described below.

Like-named read-outs stand apart in the source and are kept apart here. Where only a bound is given, the exact number is not on record here.

Test [1] has as its target T1, recombinant human phosphodiesterase 10A1 enzyme (Homo sapiens, UniProt Q9Y233).
T1 construct: purchased BPS Biosciences; host or cells: Baculovirus infected Sf9 cells
In words: PDE10 inhibition assay (PDELight). To be noted: for IC50: 1 uM cAMP, read-out: PDE 10 Inhibition (IC50 in μM); for PDE-10 inhibition (in words): Table 2. Type of test: biochemical. Here is the method:
In a 96-well plate, recombinant human phosphodiesterase 10A1 enzyme (10 U/well) expressed in Baculovirus infected Sf9 cells (BPS Biosciences) was combined with 1 uM cAMP substrate (Sigma). […] Using a PDELight® kit (Cambrex), the amount of AMP produced in the reaction from the hydrolysis of cAMP was quantified using PDELight AMP Detection Reagent which converts the AMP directly to ATP. The assay uses luciferase, which catalyses the formation of light from the newly formed ATP and luciferin. The luminescence was read on a Victor Light 1420 luminometer. IC50 calculations were plotted using a nonlinear regression curve fit.

In test [2] the target is T2, recombinant full length human JNK3 enzyme (Homo sapiens, UniProt P53779).
T2 construct: recombinant full length human JNK2 or JNK3 enzyme; purchased Upstate; host or cells: Sf21 cells
T2 sequence (P53779 whole entry): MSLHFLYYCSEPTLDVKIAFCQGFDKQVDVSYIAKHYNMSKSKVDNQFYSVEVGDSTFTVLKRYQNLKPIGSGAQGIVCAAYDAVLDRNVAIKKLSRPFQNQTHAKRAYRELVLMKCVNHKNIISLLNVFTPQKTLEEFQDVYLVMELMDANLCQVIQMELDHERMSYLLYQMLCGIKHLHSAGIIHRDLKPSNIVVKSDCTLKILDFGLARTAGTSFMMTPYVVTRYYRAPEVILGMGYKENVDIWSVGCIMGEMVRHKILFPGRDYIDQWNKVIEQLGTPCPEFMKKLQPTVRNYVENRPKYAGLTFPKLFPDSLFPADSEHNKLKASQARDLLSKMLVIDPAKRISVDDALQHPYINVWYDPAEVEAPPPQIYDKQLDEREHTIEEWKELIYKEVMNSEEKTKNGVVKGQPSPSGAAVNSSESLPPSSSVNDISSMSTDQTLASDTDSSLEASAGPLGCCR
In words: JNK 3 inhibition assay (ATP depletion, luciferase). The format is biochemical. The conditions noted are these: for IC50: 10 uM ATP, ATF2 substrate. Here is the method: In a 96-well plate, recombinant full length human JNK2 or JNK3 enzyme (40 ng) expressed in Sf21 cells (Upstate) was incubated with the substrate ATF2 (3 uM) for 1 hour in the presence of 10 uM ATP. […] The ATP levels were quantified using luciferase with luminescence read on a Victor Light 1420 luminometer. IC50 calculations were plotted using a nonlinear regression curve fit.

For test [3], the target named is T3, catalytic domain of phosphodiesterase 4B enzyme cloned from human brain (Homo sapiens, UniProt Q07343).
T3 construct: the catalytic domain of phosphodiesterase 4B enzyme; purchased Scottish Biomedical
T3 sequence (Q07343 330-659 limits assumed): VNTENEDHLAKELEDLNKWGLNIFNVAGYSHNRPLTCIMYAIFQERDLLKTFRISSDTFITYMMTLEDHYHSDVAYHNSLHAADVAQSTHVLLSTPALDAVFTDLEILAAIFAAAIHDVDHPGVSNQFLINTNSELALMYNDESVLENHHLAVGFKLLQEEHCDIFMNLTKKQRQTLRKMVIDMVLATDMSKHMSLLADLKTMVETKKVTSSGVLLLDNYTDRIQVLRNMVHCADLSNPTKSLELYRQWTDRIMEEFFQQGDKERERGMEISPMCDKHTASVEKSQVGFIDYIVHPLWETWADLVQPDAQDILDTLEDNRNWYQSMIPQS
The test can be described thus: PDE4 inhibition assay (PDELight). The format is biochemical. To be noted: for IC50: 5 uM cAMP, read-out: PDE 4 Inhibition (IC50 in μM). How it is done:
In a 96-well plate, the catalytic domain of phosphodiesterase 4B enzyme (40 mU/well) cloned from human brain (Scottish Biomedical) was combined with 5 uM cAMP substrate (Sigma). […] Using a PDELight® kit (Cambrex), the amount of AMP produced in the reaction from the hydrolysis of cAMP was quantified using PDELight AMP Detection Reagent which converts the AMP directly to ATP. The assay uses luciferase, which catalyses the formation of light from the newly formed ATP and luciferin. […] IC50 calculations were plotted using a nonlinear regression curve fit.

The test system of test [4] is rat chronic constriction injury (CCI) model of neuropathic pain. In words: Rat chronic constriction injury (CCI) model of neuropathic pain. To be noted: IP, dose not given; 50% paw withdrawal threshold, von Frey. The format is in vivo. How it is done: To induce allodynia, male Sprague-Dawley rats underwent chronic constriction injury (CCI) to the sciatic nerve as described by Bennett and Xie, Pain 1988; 33(1):87-107. The plantar surface of the hind paws was stimulated with von Frey filaments (Stoelting) to induce a withdrawal response by blinded personnel. The bending force of fiber required to induce a 50% withdrawal response was calculated following CCI surgery (pre-dosing baseline). N=5-6 allodynic rats received a single IP or oral administration of test compounds or vehicle. Two hours post-dosing, 50% paw withdrawal threshold was determined again by blinded testers using von Frey filaments. The 50% withdrawal threshold prior to CCI surgery, pre-dosing (10 days post-surgery), and 2 hours post-dosing are plotted.
For selected compounds multi-day studies were perfumed with pre-determined schedules for dosing and withdrawal threshold assessments.

Test [5] has as its target T4, recombinant full length human JNK2 enzyme (Homo sapiens, UniProt P45984).
T4 construct: recombinant full length human JNK2 or JNK3 enzyme; purchased Upstate; host or cells: Sf21 cells
In words: JNK 2 inhibition assay (ATP depletion, luciferase). The format is biochemical. The conditions noted are these: 10 uM ATP, ATF2 substrate; read-out: JNK 2 Inhibition (IC50 in μM). How it is done: In a 96-well plate, recombinant full length human JNK2 or JNK3 enzyme (40 ng) expressed in Sf21 cells (Upstate) was incubated with the substrate ATF2 (3 uM) for 1 hour in the presence of 10 uM ATP. […] IC50 calculations were plotted using a nonlinear regression curve fit.

In test [6] the test system is Mouse BV-2 microglial cells. The test can be described thus: BV-2 glial cell assay (TNF-α and MCP-1 by Luminex). Type of test: cell-based. To be noted: Mus musculus, BV-2, LPS and IFN-γ activated, 20 hours. How it is done: Mouse BV-2 microglial cells were seeded on 96-well plates at a concentration of 3×10^4 cells/well. Cells were activated with 100 ng/mL LPS and IFN-γ (100 ng/mL) in the presence or absence of test compounds (0-30 uM). Following incubation for 20 hours, cells were spun down and supernatant collected. The supernatant was analyzed via Luminex for the presence of TNF-α and MCP-1.

T1 sequence (Q9Y233 1-779 isoform Q9Y233-1): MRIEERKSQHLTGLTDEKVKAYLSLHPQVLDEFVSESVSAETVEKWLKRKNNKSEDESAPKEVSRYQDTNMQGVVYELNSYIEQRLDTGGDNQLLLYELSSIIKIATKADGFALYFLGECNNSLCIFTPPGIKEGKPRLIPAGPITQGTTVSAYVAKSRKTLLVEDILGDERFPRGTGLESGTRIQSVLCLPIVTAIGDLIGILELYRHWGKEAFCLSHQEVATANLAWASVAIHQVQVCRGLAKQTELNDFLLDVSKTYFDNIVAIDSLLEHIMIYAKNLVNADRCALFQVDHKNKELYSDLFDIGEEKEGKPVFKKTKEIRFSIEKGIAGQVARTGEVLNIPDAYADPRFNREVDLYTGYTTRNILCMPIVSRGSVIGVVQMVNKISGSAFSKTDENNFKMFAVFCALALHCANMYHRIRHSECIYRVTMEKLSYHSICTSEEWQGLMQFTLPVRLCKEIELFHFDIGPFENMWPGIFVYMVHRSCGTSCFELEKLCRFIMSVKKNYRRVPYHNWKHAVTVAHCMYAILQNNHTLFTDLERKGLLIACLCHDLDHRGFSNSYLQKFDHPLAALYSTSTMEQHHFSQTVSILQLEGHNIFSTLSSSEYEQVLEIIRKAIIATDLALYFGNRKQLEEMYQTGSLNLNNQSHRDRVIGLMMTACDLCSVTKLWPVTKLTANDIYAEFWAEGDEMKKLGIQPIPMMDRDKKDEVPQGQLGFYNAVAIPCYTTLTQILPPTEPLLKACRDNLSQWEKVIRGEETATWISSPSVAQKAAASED
T4 sequence (P45984 whole entry): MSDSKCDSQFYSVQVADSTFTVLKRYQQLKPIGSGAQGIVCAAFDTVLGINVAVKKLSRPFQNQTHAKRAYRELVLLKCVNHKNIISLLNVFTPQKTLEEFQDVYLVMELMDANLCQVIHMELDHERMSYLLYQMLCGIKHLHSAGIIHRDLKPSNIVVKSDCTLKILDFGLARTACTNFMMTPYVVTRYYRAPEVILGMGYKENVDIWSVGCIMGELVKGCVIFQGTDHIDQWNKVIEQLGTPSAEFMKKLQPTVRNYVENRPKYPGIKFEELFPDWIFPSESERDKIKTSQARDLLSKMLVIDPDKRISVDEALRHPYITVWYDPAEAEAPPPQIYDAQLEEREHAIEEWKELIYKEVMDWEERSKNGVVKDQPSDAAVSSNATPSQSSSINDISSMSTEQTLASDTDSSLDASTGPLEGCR

The IC50 is the midpoint of a concentration-inhibition curve. Regarding `CC(C)c1nn2ccccc2c1-c1ccnc(N)c1` [AV105, 4-(-2-isopropylpyrazolo[1,5-a]pyridin-3-yl)pyridin-2-amine], the 50% inhibitory concentration (IC50) in test [1] is > 100 µM; in test [2] it was > 100 µM; in test [3], 22 µM.
In the case of `CC(C)c1nn2ccccc2c1-c1ccnc(NC2CCCC2)c1` [AV1021, N-cyclopentyl-4-(-2-isopropylpyrazolo[1,5-a]pyridin-3-yl)pyridin-2-amine], the 50% inhibitory concentration (IC50) is 12 µM in test [1], > 100 µM in test [2] and > 100 µM in test [3].
Regarding `CC(C)c1nn2ccccc2c1-c1ccnc(NCCCN2CCN(C)CC2)n1` [AV1135, 4-(2-isopropylpyrazolo[1,5-a]pyridin-3-yl)-N-(3-(4-methylpiperazin-1-yl)propyl)pyrimidin-2-amine], the figures for the IC50 in test [1], in test [2] and in test [3] were 19 µM, 83 µM and > 100 µM, respectively. In test [4], the “IP CCI efficacy (Change in grams)” value turned out to be 0 grams.
With `CC(C)c1nn2ccccc2c1-c1ccnc(N)n1` [AV1139, 4-(2-isopropylpyrazolo[1,5-a]pyridin-3-yl)pyrimidin-2-amine], the figures for the IC50 in test [1], in test [2] and in test [3] were > 100 µM, 18 µM and > 100 µM, respectively. In test [4], the “IP CCI efficacy (Change in grams)” value is recorded as 0.21 grams.
`CCC(CC)Nc1nccc(-c2c(C(C)C)nn3ccccc23)n1` [AV1155, 4-(2-isopropylpyrazolo[1,5-a]pyridin-3-yl)-N-(pentan-3-yl)pyrimidin-2-amine]: the IC50 stood at 42 µM in test [1], 27 µM in test [2] and 5.9 µM in test [3]. In addition, the “IP CCI efficacy (Change in grams)” value in test [4] is listed as 0.67 grams. Also, in test [3], the “PDE-4 inhibition (in words)” value was “particularly effective”.
Consider `CC(C)Nc1nccc(-c2c(C(C)(C)C)nn3ccccc23)n1` [AV1157, 4-(2-tert-butylpyrazolo[1,5-a]pyridin-3-yl)-N-isopropylpyrimidin-2-amine], for which the IC50 in test [1], in test [2] and in test [3] was > 100 µM in each case.
For `CC(C)c1nn2ccccc2c1-c1ccnc(NC2CCNC2)n1` (centres unmarked) [AV1159, 4-(2-isopropylpyrazolo[1,5-a]pyridin-3-yl)-N-(pyrrolidin-3-yl)pyrimidin-2-amine], in test [4], the “IP CCI efficacy (Change in grams)” value is 0 grams.
`CC(C)Nc1nccc(-c2c(-c3cccc(F)c3)nn3ccccc23)n1` [AV1179, 4-(2-(3-fluorophenyl)pyrazolo[1,5-a]pyridin-3-yl)-N-isopropylpyrimidin-2-amine]: the IC50 is > 100 µM in test [1], 0.2 µM in test [2] and > 100 µM in test [3]. Also, the “JNK-3 inhibition (in words)” value in test [2] (see Table 2) is “particularly effective”.
As to `CC(C)Nc1nccc(-c2cccc3cc(C(C)C)nn23)n1` [AV1185, N-isopropyl-4-(2-isopropylpyrazolo[1,5-a]pyridin-7-yl)pyrimidin-2-amine], the values for the half-maximal inhibitory concentration (IC50) in test [1], in test [2] and in test [3] were > 100 µM, > 100 µM and 57 µM, respectively.
With `CC(C)c1cc2cccc(-c3ccnc(NC4CCCC4)n3)n2n1` [AV1186, N-cyclopentyl-4-(2-isopropylpyrazolo[1,5-a]pyridin-7-yl)pyrimidin-2-amine], the IC50 in test [1] and in test [2] was > 100 µM in each case.
Turning to `CC(C)Nc1nccc(-c2cccc3ccnn23)n1` [AV1187, N-isopropyl-4-(pyrazolo[1,5-a]pyridin-7-yl)pyrimidin-2-amine], the IC50 in test [1] and in test [2] was > 100 µM each time.
As for `c1cc(-c2ccnc(NC3CCCC3)n2)n2nccc2c1` [AV1188, N-cyclopentyl-4-(pyrazolo[1,5-a]pyridin-7-yl)pyrimidin-2-amine], the half-maximal inhibitory concentration (IC50) in test [1] and in test [2] was > 100 µM each time.
For the compound `CC(C)c1nn2ccccc2c1-c1ccnc(NS(C)(=O)=O)n1` [AV1189], the IC50 in test [1] and in test [2] was > 100 µM each time.
As to `CC(C)c1nn2ccccc2c1-c1ccnc(NS(=O)(=O)c2ccccc2)n1` [AV1190], the values for the IC50 in test [2] and in test [3] were > 100 µM and 40 µM, respectively.
As for `Cc1nn2ccccc2c1-c1ccnc(NS(=O)(=O)c2ccsc2)n1` [AV1191], the IC50 in test [1] is > 100 µM; in test [2] it was > 100 µM; in test [3], 6.8 µM.
As for `O=S(=O)(Nc1nccc(-c2cnn3ccccc23)n1)c1ccccc1` [AV1193], the IC50 is > 100 µM in test [1], 53 µM in test [2] and 9.4 µM in test [3].
In the case of `CC(C)c1nn2ccccc2c1-c1ccc(N)nc1` [AV1196, 5-(2-isopropylpyrazolo[1,5-a]pyridin-3-yl)pyridin-2-amine], the IC50 in test [1] is 8.3 µM; in test [2], 68 µM; in test [3] it was 20.8 µM. The “PDE-10 inhibition (in words)” value in test [1] is given as “particularly effective”. Also, in test [3], the “PDE-4 inhibition (in words)” value is “particularly effective”.
As to `CC(C)Nc1ccc(-c2c(C(C)C)nn3ccccc23)cn1` [AV1197, N-isopropyl-5-(2-isopropylpyrazolo[1,5-a]pyridin-3-yl)pyridin-2-amine], the IC50 in test [1] was 17 µM; in test [2], > 100 µM; in test [3], 50.5 µM.
In the case of `CC(C)c1nn2ccccc2c1-c1ccc(NC2CCCC2)nc1` [AV1199, N-cyclopentyl-5-(2-isopropylpyrazolo[1,5-a]pyridin-3-yl)pyridin-2-amine], the IC50 in test [1] is 7.1 µM; in test [2], > 100 µM; in test [3], 43 µM. The “PDE-10 inhibition (in words)” value in test [1] is on record as “particularly effective”.
Regarding `CC(C)Nc1cc(-c2c(C(C)C)nn3ccccc23)ccn1` [AV1202, N-isopropyl-4-(-2-isopropylpyrazolo[1,5-a]pyridin-3-yl)pyridin-2-amine], the IC50 in test [1] was 13 µM; in test [2], > 100 µM; in test [3], > 100 µM.
As usually defined, the EC50 is the concentration that produces a half-maximal response. Regarding `CC(C)c1nn2ccccc2c1-c1cnc(N)nc1` [AV1203, 5-(-2-isopropylpyrazolo[1,5-a]pyridin-3-yl)pyrimidin-2-amine], the IC50 in test [5] is > 100 µM; in test [1], 3.8 µM; in test [2], > 10 µM; in test [3], 9.9 µM. Further, the EC50 in test [6] (read-out: MCP-1 BV-2 (EC50 in μM)) is 0.3 µM; in test [6] (read-out: TNF-a BV-2 (EC50 in μM)), 0.8 µM.
On to `CC(C)Nc1ncc(-c2c(C(C)C)nn3ccccc23)cn1` [AV1206, N-isopropyl-5-(-2-isopropylpyrazolo[1,5-a]pyridin-3-yl)pyrimidin-2-amine], for which the figures for the IC50 in test [1], in test [2] and in test [3] were 7.4 µM, > 100 µM and 43 µM, respectively.
Take `CC(C)c1nn2ccccc2c1-c1cnc(NC2CCCC2)nc1` [AV1207, N-cyclopentyl-5-(-2-isopropylpyrazolo[1,5-a]pyridin-3-yl)pyrimidin-2-amine]: the IC50 in test [1] was 3.2 µM; in test [2] it was > 100 µM; in test [3], 24 µM.
In the same order, the values of `CC(C)c1nn2ccccc2c1-c1ccnc(N(C)C)c1` [AV1208, 4-(-2-isopropylpyrazolo[1,5-a]pyridin-3-yl)-N,N-dimethylpyridin-2-amine] are 5.4 µM, > 100 µM and 3.9 µM.
For the compound `COc1ccc(Cc2nccc3cc(OC)c(OC)cc23)cc1OC` [Papaverine, reference compound], the “IP CCI efficacy (Change in grams)” value in test [4] is reported as 1.35 grams.
